This note sets out measurements from patent publication US20230108906A1, “SUBSTITUTED BICYCLIC AND TRICYCLIC UREAS AND AMIDES, ANALOGUES THEREOF, AND METHODS USING SAME” (Arbutus Biopharma Corporation, priority 2019, published 2023).

One experiment has as its system HBV rcDNA in HepDE19 cells. The experiment is described as follows: HepDE19 assay with bDNA quantitation of HBV rcDNA. It counts as cell-based, hepatitis B virus (HBV). The following applies: Hepatitis B virus, HepDE19, 168 h, inhibition of rcDNA formation in HepDE19 cells (HepG2 derived), Tet-free medium, 7 day incubation, Quantigene 2.0 bDNA readout, top concentration 25 μM; read-out: DE-19bDNA EC50. The procedure, abridged:
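HepDE19 cells (HepG2-derived, Tet-regulated HBV) switched to Tet-free medium, then treated 7 days at 37 °C with compound, 8-point titration from 25 μM, 0.5% DMSO. rcDNA quantified by bDNA with HBV probes; EC50/EC90 via 4-parameter fit. Viability (CC50) by CellTiter-Glo ATP on 5,000 cells/well after 4 days.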
On to `CC(C)CN(C(=O)Nc1ccc(F)c(Cl)c1)C1COCc2[nH]c(=O)c3ccccc3c21` (centres unmarked) [Compound 30, 3-(3-Chloro-4-fluorophenyl)-1-isobutyl-1-(6-oxo-1,4,5,6-tetrahydro-2H-pyrano[3,4-c]isoquinolin-1-yl)urea], for which the EC50 amounted to 20 nM. For `CN1Cc2[nH]c(=O)c3cc(F)c(F)cc3c2C(N(C)C(=O)Nc2ccc(F)c(C#N)c2)C1` (single isomer, unassigned) [Compound 174, 3-(3-Cyano-4-fluorophenyl)-1-(8,9-difluoro-3-methyl-6-oxo-1,2,3,4,5,6-hexahydrobenzo[c][1,7]naphthyridin-1-yl)-1-methylurea], the EC50 amounted to 310 nM.

Turning to `CN(C(=O)N1Cc2ccccc2C1)[C@@H]1COCc2[nH]c(=O)c3cc(F)c(F)cc3c21` [Compound 218, (S)—N-(8,9-Difluoro-6-oxo-1,4,5,6-tetrahydro-2H-pyrano[3,4-c]isoquinolin-1-yl)-N-methylisoindoline-2-carboxamide], the EC50 was determined as 1200 nM. For the molecule `CN(C(=O)Nc1ccc(F)c(C(F)F)c1)[C@@H]1COCc2c1c1cc(F)c(F)cc1c(=O)n2CCN` [Compound 253, (S)-1-(5-(2-Aminoethyl)-8,9-difluoro-6-oxo-1,4,5,6-tetrahydro-2H-pyrano[3,4-c]isoquinolin-1-yl)-3-(3-(difluoromethyl)-4-fluorophenyl)-1-methylurea], the EC50 turned out to be 910 nM. Still for that read-out and setting: the figure for `CC1Cc2[nH]c(=O)c3ccccc3c2C(N(C)C(=O)Nc2ccc(F)c(Cl)c2)C1` (racemic) [Compound 26, 3-(3-Chloro-4-fluorophenyl)-1-methyl-1-(3-methyl-6-oxo-1,2,3,4,5,6-hexahydrophenanthridin-1-yl)urea] is 2900 nM; for `CN(C(=O)Nc1ccc(F)c(C#N)c1)C1CS(=O)(=O)Cc2[nH]c(=O)c3cc(F)c(F)cc3c21` (single isomer, unassigned) [Compound 205, 3-(3-Cyano-4-fluorophenyl)-1-(8,9-difluoro-3,3-dioxido-6-oxo-1,4,5,6-tetrahydro-2H-thiopyrano[3,4-c]isoquinolin-1-yl)-1-methylurea] it is 7200 nM.

Staying with this experiment, now noted: inhibition of rcDNA formation in HepDE19 cells (HepG2 derived), Tet-free medium, 7 day incubation, Quantigene 2.0 bDNA readout, top concentration 25 μM; read-out: DE-19bDNA EC50.
Turning to `CN(C(=O)Nc1ccc(F)c(F)c1)C1CCCc2[nH]c(=O)c3c(c21)COCC3` (single isomer, unassigned) [Compound 82, 3-(3,4-Difluorophenyl)-1-methyl-1-(5-oxo-3,4,5,6,7,8,9,10-octahydro-1H-pyrano[4,3-c]quinolin-10-yl)urea], the EC50 came out at 7300 nM. On to `CC(C)(O)CN(C(=O)Nc1ccc(F)c(Cl)c1)C1COCc2[nH]c(=O)c3cc(F)ccc3c21` (single isomer, unassigned) [Compound 111, 3-(3-Chloro-4-fluorophenyl)-1-(8-fluoro-6-oxo-1,4,5,6-tetrahydro-2H-pyrano[3,4-c]isoquinolin-1-yl)-1-(2-hydroxy-2-methylpropyl)urea], for which the EC50 came to 200 nM.

Take `CN(C(=O)Nc1ccc(F)c(Cl)c1)C1CSCc2[nH]c(=O)c3cc(F)c(F)cc3c21` (single isomer, unassigned) [Compound 187, 3-(3-Chloro-4-fluorophenyl)-1-(8,9-difluoro-6-oxo-1,4,5,6-tetrahydro-2H-thiopyrano[3,4-c]isoquinolin-1-yl)-1-methylurea]: the EC50 is 900 nM. Take `CN1Cc2[nH]c(=O)c3cc(F)c(F)cc3c2C(N(C)C(=O)Nc2ccc(F)c(Cl)c2)C1` (single isomer, unassigned) [Compound 167, 3-(3-Chloro-4-fluorophenyl)-1-(8,9-difluoro-3-methyl-6-oxo-1,2,3,4,5,6-hexahydrobenzo[c][1,7]naphthyridin-1-yl)-1-methylurea]: the EC50 came to 7600 nM. For `CN(C(=O)Nc1ccc(F)c(C#N)c1)C1C[S+]([O-])Cc2[nH]c(=O)c3cc(F)ccc3c21` (single isomer, unassigned) [Compound 199, 3-(3-Cyano-4-fluorophenyl)-1-(8-fluoro-3-oxido-6-oxo-1,4,5,6-tetrahydro-2H-thiopyrano[3,4-c]isoquinolin-1-yl)-1-methylurea], the EC50 stood at 20000 nM. Take `CN(C(=O)Nc1ccc(F)c(Cl)c1)C1COCc2[nH]c(=O)c3c(c21)COCC3` (single isomer, unassigned) [Compound 83, 3-(3-Chloro-4-fluorophenyl)-1-methyl-1-(5-oxo-4,5,6,7,9,10-hexahydro-1H,3H-dipyrano[3,4-b:3′,4′-d]pyridin-10-yl)urea]: the EC50 was not below 25000 nM. Same read-out and setting: the figure for `CN(C(=O)Nc1ccc(F)c(Cl)c1)C1COCc2nc(NCCN)c3cc(F)c(F)cc3c21` (single isomer, unassigned) [Compound 250] is 270 nM; for `Cc1cc(NC(=O)N(CC(C)C)C2COCc3[nH]c(=O)c4cc(F)ccc4c32)ccc1F` (single isomer, unassigned) [Compound 131, 3-(4-Fluoro-3-methylphenyl)-1-(8-fluoro-6-oxo-1,4,5,6-tetrahydro-2H-pyrano[3,4-c]isoquinolin-1-yl)-1-isobutylurea] it is 10 nM; for `CN(C(=O)Nc1cc(F)c(F)c(F)c1)C1COCc2[nH]c(=O)c3cc(F)c(F)cc3c21` (single isomer, unassigned) [Compound 134, 1-(8,9-Difluoro-6-oxo-1,4,5,6-tetrahydro-2H-pyrano[3,4-c]isoquinolin-1-yl)-1-methyl-3-(3,4,5-trifluorophenyl)urea] it is 990 nM. Take `CN(C(=O)Nc1cc(F)c(F)c(Cl)c1)C1COCc2[nH]c(=O)c3cc(F)ccc3c21` (single isomer, unassigned) [Compound 108, 3-(3-Chloro-4,5-difluorophenyl)-1-(8-fluoro-6-oxo-1,4,5,6-tetrahydro-2H-pyrano[3,4-c]isoquinolin-1-yl)-1-methylurea]: the EC50 came out at 20 nM. For the molecule `CC(=O)N1Cc2[nH]c(=O)c3cc(F)c(F)cc3c2C(N(C)C(=O)Nc2ccc(F)c(C#N)c2)C1` (single isomer, unassigned) [Compound 177, 1-(3-Acetyl-8,9-difluoro-6-oxo-1,2,3,4,5,6-hexahydrobenzo[c][1,7]naphthyridin-1-yl)-3-(3-cyano-4-fluorophenyl)-1-methylurea], the EC50 was not below 25000 nM. In the case of `CN(C(=O)Nc1ccc(F)c(Cl)c1)C1COCc2nc(NCCO)c3cc(F)c(F)cc3c21` (single isomer, unassigned) [Compound 245, 3-(3-Chloro-4-fluorophenyl)-1-(8,9-difluoro-6-((2-hydroxyethyl)amino)-1,4-dihydro-2H-pyrano[3,4-c]isoquinolin-1-yl)-1-methylurea], the EC50 was 4200 nM. Still for that read-out and setting: the figure for `CN(C(=O)Nc1ccc(F)c(C(F)F)c1)C1COCc2nc(NCCN)c3cc(F)c(F)cc3c21` (single isomer, unassigned) [Compound 247, 1-(6-((2-Aminoethyl)amino)-8,9-difluoro-1,4-dihydro-2H-pyrano[3,4-c]isoquinolin-1-yl)-3-(3-(difluoromethyl)-4-fluorophenyl)-1-methylurea] is 80 nM; for `CS(=O)(=O)CCN(C(=O)Nc1ccc(F)c(Cl)c1)C1COCc2[nH]c(=O)c3cc(F)c(F)cc3c21` (single isomer, unassigned) [Compound 139, 3-(3-Chloro-4-fluorophenyl)-1-(8,9-difluoro-6-oxo-1,4,5,6-tetrahydro-2H-pyrano[3,4-c]isoquinolin-1-yl)-1-(2-(methylsulfonyl)ethyl)urea] it is 600 nM; for `CN(C(=O)N1Cc2ccccc2C1)C1CNCc2[nH]c(=O)c3cc(F)c(F)cc3c21` (single isomer, unassigned) [Compound 223, N-(8,9-Difluoro-6-oxo-1,2,3,4,5,6-hexahydrobenzo[c][1,7]naphthyridin-1-yl)-N-methylisoindoline-2-carboxamide] it is 2300 nM.

Consider `CN1Cc2[nH]c(=O)c3cc(F)ccc3c2C(N(C)C(=O)Nc2ccc(F)c(C#N)c2)C1` (single isomer, unassigned) [Compound 164, 3-(3-Cyano-4-fluorophenyl)-1-(8-fluoro-3-methyl-6-oxo-1,2,3,4,5,6-hexahydrobenzo[c][1,7]naphthyridin-1-yl)-1-methylurea], for which the EC50 was determined as 1300 nM. For the molecule `CN(C(=O)Nc1ccc(F)c(Cl)c1)C1CNCc2[nH]c(=O)c3cc(F)c(F)cc3c21` (single isomer, unassigned) [Compound 150, 3-(3-Chloro-4-fluorophenyl)-1-(8,9-difluoro-6-oxo-1,2,3,4,5,6-hexahydrobenzo[c][1,7]naphthyridin-1-yl)-1-methylurea], the EC50 turned out to be 10 nM. `CN(C(=O)Nc1ccc(F)c(F)c1)C1COCc2[nH]c(=O)c3c(c21)CCOC3` (single isomer, unassigned) [Compound 93, 3-(3,4-Difluorophenyl)-1-methyl-1-(6-oxo-1,2,4,5,6,7,9,10-octahydrodipyrano[3,4-b:4′,3′-d]pyridin-1-yl)urea]: the EC50 is not below 25000 nM.

The experiment is the same for the next values; noted with them: read-out: DE-19bDNA EC50; inhibition of rcDNA formation in HepDE19 cells (HepG2 derived), Tet-free medium, 7 day incubation, Quantigene 2.0 bDNA readout, top concentration 25 μM.
With `CN(C(=O)Nc1cccc(Cl)c1)C1COCc2[nH]c(=O)c3cc(F)c(F)cc3c21` (single isomer, unassigned) [Compound 120, 3-(3-Chlorophenyl)-1-(8,9-difluoro-6-oxo-1,4,5,6-tetrahydro-2H-pyrano[3,4-c]isoquinolin-1-yl)-1-methylurea], the EC50 stood at 10 nM. As for `CN(C(=O)Nc1ccccc1)C1COCc2[nH]c(=O)c3cc(F)c(F)cc3c21` (single isomer, unassigned) [Compound 102, 1-(8,9-Difluoro-6-oxo-1,4,5,6-tetrahydro-2H-pyrano[3,4-c]isoquinolin-1-yl)-1-methyl-3-phenylurea], the EC50 came out at 30 nM.

By EC50 is commonly meant the concentration at which the effect is half-maximal.
